The values below come from paper PMC9414910, “Optimized ^68Ga-Labeled Urea-Based PSMA-Targeted PET Tracers for Prostate Cancer” (Pharmaceuticals, 2022).

Broadly, the Ki is the equilibrium dissociation constant of an inhibitor or competing ligand from its target.

Series [1] has as its target T1, Recombinant human PSMA (rhPSMA) (Homo sapiens, UniProt Q04609).
T1 construct: purchased R&D systems, Wiesbaden, Germany
Kind of series: NAALADase assay (enzyme-based assay on rhPSMA). The format is biochemical. To be noted: NAAG substrate, unlabeled ligands, read-out: Ki (PSMA inhibition constant). On the procedure: (§1) The partition coefficient of each novel radiotracer was determined using an octanol–water system (v/v = 1:1). The in vitro stability was determined using two systems (PBS and 5% BSA). The Ki value was measured by the NAALADase assay. The 22Rv1 and PC-3 cell lines were used for the cell-binding study and establishment of the tumor-bearing model (detailed information is shown in the Supplementary Materials).
The PSMA-inhibitory activity of novel PSMA ligands was analyzed by performing an enzyme-based assay on rhPSMA [11].
PBS) and reported as log p ± SD.
The in vitro stability of radiotracers was determined by measuring radiochemical purity (RCP) in […] and 5% bovine serum albumin (BSA) at 37 °C at different time intervals (30 min, 60 min, 120 min) using radio-HPLC.
Recombinant human PSMA (rhPSMA, R&D systems, Wiesbaden, Germany) was diluted in assay buffer (50 mM HEPES, 0.1 M NaCl, pH 7.5) to 0.4 μg/mL. […]
250 μL of ortho-phthaldialdehyde solution (OPA, 15 mM, Sigma, Taufkirchen, Germany) was added to each vial and incubated for 3 min at room temperature. 200 μL aliquot of each vial was added into a 96 black well plate and read at excitation and emission wavelengths of 350 and 450 nm using a microplate reader. […] The data were analyzed by the one-site total binding regression algorithm of GraphPad

The test system of series [2] is 22Rv1 tumors. In words: Micro-PET imaging in 22Rv1 tumor-bearing mice. The format is in vivo. Particulars: 60 min p.i. On the procedure: (§2) The animal studies were approved by the institutional animal care and use committee of the Chinese PLA General Hospital. Healthy male ICR mice were injected with either a novel radiotracer (37 MBq in 150 μL) or saline (150 μL) for the radiotoxicity evaluation. […] Biodistribution and micro-PET studies were performed on 22Rv1 and PC-3 xenograft models, and 2-PMPA was used as the PSMA blocker (all details are shown in the Supplementary Materials).
Table S9. Tumor-to-mu scle (T/M) ratio and tumor- to-kidney (T/K) rati o of radiotracers at 60 min p.i.
The Mice bearing 22Rv1 and PC-3 (n = 3/group) xenograft tumors were […]
Co-injection with 2-PMPA (50 μ g) and each novel tracer (7.4 MBq in 150 μL) was used for blocking. Then the mice were anesthetized with 3% (v/v) isoflurane and underwent Micro-PET scans with continuous 1% (v/v) isoflurane. The images were acquired at 60 min p.i.. In comparison, […]
into another group of mice (n = 3), and Micro-PET schedule was performed as […]
Imaging was performed on a Super Nova PET/CT scanner using a 100-mm-transaxial field of view for PET and 110-mm for CT.
Three-dimensional ordered-subsets expectation maximization reconstruction

Series [3] concerns 22Rv1 cells (mild PSMA+). Kind of series: Cell uptake / binding in 22Rv1 cells. The format is cell-based, human. Particulars: 60 min incubation, 37 °C. An excerpt:
Cell lines were kindly provided by the stem cell bank of the Chinese Academy of Sciences. The human prostate cancer epithelial cell lines 22Rv1 (mild PSMA+) and PC-3 (with no PSMA receptor) were used to evaluate the specific cell-binding affinity of the radiotracers, and the results were expressed as percentages of injected activity, IA%/10^6.
Cell Lines and Culture Condition
Cell lines were kindly provided by the stem cell bank, the Chinese Academy of Sciences. The human prostate cancer cell lines 22Rv1 ( mild PSMA positive) and PC3 (PSMA negative) were cultured in RPMI 1640 medium or F12K medium (CORNING, America), supplemented with 10% Fetal Bovine Serum
(GIBCO, The Netherlands) and 1% penicillin-streptomycin (CORNING, America) in a humidified incubator at 37 °C under 5% CO2. Each cell line was passaged when it was at around 80-90% confluence, and harvested using trypsin-ethylenediaminetetraacetic acid (trypsin-EDTA; 0.25% trypsin, 0.02% EDTA, all from KeyGEN BioTECH).
Cells were seeded separately in 24 well plates (1 x 10^5 cells in 1 mL medium/well) and incubated overnight, the medium was changed 2 h before the experiment. For the binding experiments, cells were incubated with novel […]
min, 30 min and 60 min (6 wells/time point). After incubation, the medium was removed and the cells were washed twice with ice-cold phosphate-buffered saline (0.5 mL). Finally, the cells were lysed by NaOH (0.5 M, 0.5 mL). Coincubation of 2-(phosphonomethyl) pentane-1,5-dioic acid […]
(2-PMPA) solution (2 μg/well) and each radiotracer for 60 min was conducted as the blocking experiment. The radioactivity of cells was measured by a γ-counter. The studies were performed in triplicate and the results were reported as the percentage injected activity (IA%/10^6 cells). […]

A short description of series [4]: Partition coefficient, octanol–water system. The series is classed as physicochemical. To be noted: octanol–water (v/v = 1:1), n = 3. On the procedure: as §1
PBS) and reported as log p ± SD. […]

Series [5] is described as follows: Radiotoxicity study in male ICR mice. The format is in vivo.
Series [6] has as its system 22Rv1 tumor-bearing mice. In words: Biodistribution in 22Rv1 tumor-bearing mice. To be noted: for Uptake Blood, Mean / Uptake Bone, Mean / Uptake Heart, Mean / Uptake Kidney, Mean / Uptake Liver, Mean / Uptake Lung, Mean / Uptake Muscle, Mean / Uptake Spleen, Mean / Uptake Tumor (22Rv1), Mean: 0.74 MBq, n = 3. On the procedure: as §2
BALB/c nude mice (male, 4-6 weeks) were inoculated subcutaneously with […]
100 mm3, the mice underwent biodistribution study and Micro-PET imaging.
The 22Rv1 tumor-bearing mice were injected with each novel radiotracer or […]
[…] Mice were sacrificed at different time points p.i. (10 min, 30 min, 60 min), tumors and interested organs were harvested, weighed and measured by a γ-counter, the results were expressed as the percentage of injected dose per gram (ID%/g).
Table S1. Uptake values for ex vivo tissues of [ 68Ga]Ga-PSMA-Q (0.74 MBq/mice) in 22Rv1 tumor-bearing mice (10, 30 and 60 min p.i., n = 3/time point).

The nature of series [7]: Blood pharmacokinetics in male ICR mice. Particulars: 7.4 MBq i.v., two-compartment model. The format is in vivo. On the procedure:
Injection of novel radiotracers or [68Ga]Ga-PSMA-617 or [68Ga]Ga-PSMA-11 […]
mice (5 mice/group), and the blood sample (5 μL) of each mouse was collected by cutting down the tail end at different time points post injection. The radioactivity of blood samples were measured by a γ-counter and the pharmacokinetics data was calculated using the WinNonlin software.
Figure S3. Time-activity curves of the blood samplesafter injection of 7.4 MBq of [68Ga]Ga-PSMA-4PY (A), [68Ga]Ga-PSMA-Q (B),[68Ga]Ga-PSMA-P (C), [68Ga]Ga-PSMA-617 (D), [68Ga]Ga-PSMA-11 (E), [68Ga]Ga-PSMA-Q-1 (F), [68Ga]Ga-PSMA-Q-2 (G) and [68Ga]Ga-PSMA-Q-3 (H).
(1 picture or pasted object on this page, not shown here)

Setting [8] is: 60 min p.i., listed as [68Ga]Ga-PSMA-Q.
Setting [9] is: biodistribution, 22Rv1 tumor-bearing mice, 60 min p.i.

T1 sequence (Q04609 whole entry): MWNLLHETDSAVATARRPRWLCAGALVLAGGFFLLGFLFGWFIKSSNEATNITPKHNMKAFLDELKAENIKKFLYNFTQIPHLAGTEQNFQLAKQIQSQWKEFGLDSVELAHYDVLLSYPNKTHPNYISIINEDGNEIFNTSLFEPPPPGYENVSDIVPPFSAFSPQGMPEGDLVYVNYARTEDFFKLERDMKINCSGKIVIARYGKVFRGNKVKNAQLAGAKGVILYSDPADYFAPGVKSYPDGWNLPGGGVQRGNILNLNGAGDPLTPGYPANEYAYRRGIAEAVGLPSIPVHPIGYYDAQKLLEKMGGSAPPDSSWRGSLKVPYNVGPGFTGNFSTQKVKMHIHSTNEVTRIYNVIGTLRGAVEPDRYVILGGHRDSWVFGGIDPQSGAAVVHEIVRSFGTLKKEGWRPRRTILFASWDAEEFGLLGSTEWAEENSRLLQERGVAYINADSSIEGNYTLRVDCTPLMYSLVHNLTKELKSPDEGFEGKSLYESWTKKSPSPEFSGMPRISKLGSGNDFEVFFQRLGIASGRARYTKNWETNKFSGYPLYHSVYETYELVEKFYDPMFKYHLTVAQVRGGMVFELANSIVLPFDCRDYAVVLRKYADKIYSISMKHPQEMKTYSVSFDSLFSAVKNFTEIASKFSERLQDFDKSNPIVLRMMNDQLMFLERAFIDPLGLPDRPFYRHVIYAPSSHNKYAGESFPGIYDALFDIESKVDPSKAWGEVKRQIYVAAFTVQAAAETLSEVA

In the case of `O=C(O)CC[C@H](NC(=O)N[C@@H](CCCCNC(=O)[C@H](Cc1ccc2ccccc2c1)NC(=O)[C@H]1CC[C@H](CNC(=O)CN2CCN(CC(=O)O)CCN(CC(=O)O)CCN(CC(=O)O)CC2)CC1)C(=O)O)C(=O)O` [PSMA-617, reference compound], the inhibitory constant (Ki) in series [1] amounted to 2.89 ± 1.07 nM.

On to `O=C(O)CCC(NC(=O)NC(CCCCNC(=O)C(Cc1cc2ccc3cccc4ccc(c1)c2c34)NC(=O)C1CCC(CNC(=O)CN2CCN(CC(=O)O)CCN(CC(=O)O)CCN(CC(=O)O)CC2)CC1)C(=O)O)C(=O)O` (centres unmarked) [PSMA-P], for which the Ki in series [1] came to 42.4 ± 2.11 nM.

On to `O=C([O-])CN1CCN(CC(=O)[O-])CCN(CC(=O)NCC2CCC(C(=O)NC(Cc3cnc4ccccc4c3)C(=O)NCCCCC(NC(=O)NC(CCC(=O)O)C(=O)O)C(=O)O)CC2)CCN(CC(=O)O)CC1.[68Ga+3]` (centres unmarked) [[^68Ga]Ga-PSMA-Q], for which the SUVmax of tumor in series [2] (22Rv1 tumor, 7.4 MBq) was 0.97 ± 0.24. Besides, the “Tumor-to-muscle ratio (micro-PET)” value in series [2] (22Rv1 tumor-bearing mice) is on record as 59.33 ± 5.72. Besides, the “Uptake in 22Rv1 cells” value in series [3] came to 3.75 ± 0.35 IA%/10^6. For the same compound, the “Log p pH = 7.4” value in series [4] is −3.24 ± 0.21. Further, in series [5] (37 MBq in 150 μL, 14 days), the Survival result is reported as “did not die within 14 days”. Besides, the “Routine blood tests and H&E staining of the main organs vs control” value in series [5] (37 MBq in 150 μL, vs saline) is given as “no significant differences”. For the same compound, the “Acute radiotoxicity-related adverse events” value in series [5] (toxicity experiments in mice) was “no acute radiotoxicity-related adverse events were observed”. In addition, in series [6] (10 min p.i.), the “Uptake Blood, Mean” value worked out at 2.62 ID%/g; the “Uptake Bone, Mean” value is recorded as 0.72 ID%/g; the “Uptake Heart, Mean” value was found to be 2.07 ID%/g; the “Uptake Kidney, Mean” value is 8.79 ID%/g. Also, in series [6] (10 min p.i.), the “Uptake Liver, Mean” value stood at 2.13 ID%/g; the “Uptake Lung, Mean” value is recorded as 1.10 ID%/g; the “Uptake Muscle, Mean” value stood at 0.70 ID%/g; the “Uptake Spleen, Mean” value stood at 2.16 ID%/g. Moreover, the “Uptake Tumor (22Rv1), Mean” value in series [6] (10 min p.i.) was 1.86 ID%/g. Besides, in series [6] (30 min p.i.), the “Uptake Blood, Mean” value was determined as 1.04 ID%/g; the “Uptake Bone, Mean” value is reported as 0.22 ID%/g; the “Uptake Heart, Mean” value is given as 0.98 ID%/g; the “Uptake Kidney, Mean” value amounted to 5.91 ID%/g. Moreover, in series [6] (30 min p.i.), the “Uptake Liver, Mean” value is listed as 1.14 ID%/g; the “Uptake Lung, Mean” value turned out to be 0.76 ID%/g; the “Uptake Muscle, Mean” value amounted to 0.21 ID%/g; the “Uptake Spleen, Mean” value was found to be 1.73 ID%/g. Besides, the “Uptake Tumor (22Rv1), Mean” value in series [6] (30 min p.i.) turned out to be 2.98 ID%/g. In series [6] (60 min p.i.), the “Uptake Blood, Mean” value is reported as 0.31 ID%/g; the “Uptake Bone, Mean” value is 0.21 ID%/g; the “Uptake Heart, Mean” value amounted to 0.08 ID%/g; the “Uptake Liver, Mean” value was determined as 0.70 ID%/g. Besides, in series [6] (60 min p.i.), the “Uptake Lung, Mean” value amounted to 0.33 ID%/g; the “Uptake Muscle, Mean” value came out at 0.13 ID%/g; the “Uptake Spleen, Mean” value came out at 0.35 ID%/g; the “Uptake Tumor (22Rv1), Mean” value was found to be 4.06 ± 0.36 ID%/g. In series [6] (setting [8]), the “Uptake Kidney, Mean” value is given as 2.46 ID%/g and the “Uptake Tumor (22Rv1), Mean” value worked out at 4.06 ID%/g. In series [6] (setting [9]), the “Tumor-to-kidney (T/K) ratio” value worked out at 1.60 ± 0.08 and the “Tumor-to-muscle (T/M) ratio” value is given as 31.44 ± 2.09. For the same compound, in series [6] (within 60 min p.i.), the “Clearance profile in the kidneys” value is listed as “washed out rapidly from the kidneys”. The compound further had an Elimination half-life in series [7] of 17.86 ± 1.23 min.
